Results reported in ChEMBL document CHEMBL3868618, “Synthesis and biological evaluation of chalcone derivatives containing aminoguanidine or acylhydrazone moieties” (Bioorg Med Chem Lett, 2016).
Values after ≈ are worked out from the molar mass of the structure shown.

Assays:
[1] = test system: Staphylococcus aureus; experiment: Antibacterial activity against Staphylococcus aureus 503 measured after 24 hrs by two-fold serial dilution method; assay type: functional; details: Staphylococcus aureus, 503, 24 h
[2] = test system: Staphylococcus aureus; experiment: Antibacterial activity against Staphylococcus aureus 4220 measured after 24 hrs by two-fold serial dilution method; assay type: functional; details: Staphylococcus aureus, 4220, 24 h
[3] = test system: Staphylococcus aureus; experiment: Antibacterial activity against Staphylococcus aureus 209 measured after 24 hrs by two-fold serial dilution method; assay type: functional; details: Staphylococcus aureus, 209, 24 h
[4] = test system: Streptococcus mutans; experiment: Antibacterial activity against Streptococcus mutans 3065 measured after 24 hrs by two-fold serial dilution method; assay type: functional; details: Streptococcus mutans, 3065, 24 h
[5] = test system: Escherichia coli; experiment: Antibacterial activity against Escherichia coli 1924 measured after 24 hrs by two-fold serial dilution method; assay type: functional; details: Escherichia coli, 1924, 24 h
[6] = test system: Escherichia coli; experiment: Antibacterial activity against Escherichia coli 1356 measured after 24 hrs by two-fold serial dilution method; assay type: functional; details: Escherichia coli, 1356, 24 h
[7] = test system: Salmonella typhimurium; experiment: Antibacterial activity against Salmonella typhimurium 1926 measured after 24 hrs by two-fold serial dilution method; assay type: functional, Salmonella enterica subsp. enterica serovar Typhimurium; details: Salmonella enterica, 1926, 24 h
[8] = test system: Pseudomonas aeruginosa; experiment: Antibacterial activity against Pseudomonas aeruginosa 2742 measured after 24 hrs by two-fold serial dilution method; assay type: functional; details: Pseudomonas aeruginosa, 2742, 24 h
[9] = test system: Candida albicans; experiment: Antifungal activity against Candida albicans 7535 measured after 24 hrs by two-fold serial dilution method; assay type: functional; details: Candida albicans, 7535, 24 h
[10] = test system: Staphylococcus aureus; experiment: Antibacterial activity against methicillin-resistant Staphylococcus aureus 3167 measured after 24 hrs by two-fold serial dilution method; assay type: functional; details: Staphylococcus aureus, 3167, 24 h
[11] = test system: Staphylococcus aureus; experiment: Antibacterial activity against methicillin-resistant Staphylococcus aureus 3506 measured after 24 hrs by two-fold serial dilution method; assay type: functional; details: Staphylococcus aureus, 3506, 24 h
[12] = test system: Staphylococcus aureus; experiment: Antibacterial activity against quinolone-resistant Staphylococcus aureus 3505 measured after 24 hrs by two-fold serial dilution method; assay type: functional; details: Staphylococcus aureus, 3505, 24 h
[13] = test system: Staphylococcus aureus; experiment: Antibacterial activity against quinolone-resistant Staphylococcus aureus 3519 measured after 24 hrs by two-fold serial dilution method; assay type: functional; details: Staphylococcus aureus, 3519, 24 h
[14] = test system: Mus musculus; experiment: Antiinflammatory activity in mouse assessed as inhibition of xylene-induced ear edema at 100 mg/kg, ip administered 30 mins before xylene challenge measured after 30 mins relative to DMSO-control; assay type: functional
[15] = test system: Mus musculus; experiment: Antiinflammatory activity in mouse assessed as inhibition of xylene-induced ear edema at 100 mg/kg, po administered 1 hr before xylene challenge measured after 3 hrs; assay type: functional
[16] = test system: Mus musculus; experiment: Antiinflammatory activity in mouse assessed as inhibition of xylene-induced ear edema at 100 mg/kg, po administered 2 hrs before xylene challenge measured after 3 hrs; assay type: functional
[17] = test system: Mus musculus; experiment: Antiinflammatory activity in mouse assessed as inhibition of xylene-induced ear edema at 100 mg/kg, po administered 3 hrs before xylene challenge measured after 3 hrs; assay type: functional
[18] = test system: Mus musculus; experiment: Antiinflammatory activity in mouse assessed as inhibition of xylene-induced ear edema at 100 mg/kg, po administered 4 hrs before xylene challenge measured after 3 hrs; assay type: functional
[19] = test system: Mus musculus; experiment: Antiinflammatory activity in mouse assessed as inhibition of xylene-induced ear edema at 100 mg/kg, po administered 5 hrs before xylene challenge measured after 3 hrs; assay type: functional
[20] = test system: Mus musculus; experiment: Antiinflammatory activity in mouse assessed as inhibition of xylene-induced ear edema at 100 mg/kg, po administered 24 hrs before xylene challenge measured after 3 hrs; assay type: functional
[21] = test system: Mus musculus; experiment: Antiinflammatory activity in mouse assessed as inhibition of xylene-induced ear edema at 50 mg/kg, po administered 2 hrs before xylene challenge measured after 3 hrs; assay type: functional
[22] = test system: Mus musculus; experiment: Antiinflammatory activity in mouse assessed as inhibition of xylene-induced ear edema at 25 mg/kg, po administered 2 hrs before xylene challenge measured after 3 hrs; assay type: functional
[23] = Cytotoxicity against human HeLa cells assessed as reduction in cell viability measured after 24 hrs by MTT assay; assay type: toxicity, cell-based
[24] = Cytotoxicity against human Hep3B cells assessed as reduction in cell viability measured after 24 hrs by MTT assay; assay type: toxicity, cell-based, Hep 3B2
[25] = Cytotoxicity against human L02 cells assessed as reduction in cell viability measured after 24 hrs by MTT assay; assay type: toxicity, cell-based
[26] = test system: Salmonella typhimurium; experiment: Potency index, ratio of gatifloxacin MIC to compound MIC against Salmonella typhimurium 1926; assay type: functional, Salmonella enterica subsp. enterica serovar Typhimurium
[27] = test system: Salmonella typhimurium; experiment: Potency index, ratio of moxifloxin MIC to compound MIC against Salmonella typhimurium 1926; assay type: functional, Salmonella enterica subsp. enterica serovar Typhimurium
[28] = test system: Candida albicans; experiment: Potency index, ratio of fluconazole MIC to compound MIC against Candida albicans 7535; assay type: functional

| SMILES | MIC [1] [µg/mL] | MIC [2] [µg/mL] | MIC [3] [µg/mL] | MIC [4] [µg/mL] | MIC [5] [µg/mL] | MIC [6] [µg/mL] | MIC [7] [µg/mL] | MIC [8] [µg/mL] | MIC [9] [µg/mL] | MIC [10] [µg/mL] | MIC [11] [µg/mL] | MIC [12] [µg/mL] | MIC [13] [µg/mL] | inhibition in vivo at 100 mg/kg [14] [%] | inhibition in vivo at 100 mg/kg [15] [%] | inhibition in vivo at 100 mg/kg [16] [%] | inhibition in vivo at 100 mg/kg [17] [%] | inhibition in vivo at 100 mg/kg [18] [%] | inhibition in vivo at 100 mg/kg [19] [%] | inhibition in vivo at 100 mg/kg [20] [%] | further results |
| --- | --- | --- | --- | --- | --- | --- | --- | --- | --- | --- | --- | --- | --- | --- | --- | --- | --- | --- | --- | --- | --- |
| N=C(N)N/N=C/c1ccc(/C=C/C(=O)c2ccc(Cl)cc2Cl)cc1 | 2 (≈ 5.54 µM) | 2 (≈ 5.54 µM) | 2 (≈ 5.54 µM) | 2 (≈ 5.54 µM) | 2 (≈ 5.54 µM) | 8 (≈ 22.1 µM) | 1 (≈ 2.77 µM) | 2 (≈ 5.54 µM) | 1 (≈ 2.77 µM) | 8 (≈ 22.1 µM) | 8 (≈ 22.1 µM) | 8 (≈ 22.1 µM) | 16 (≈ 44.3 µM) | 92.5 | 20.7 | 34.2 to 43.5 | 26.4 | 16.9 | 11.3 | 5.52 | inhibition in vivo at 50 mg/kg [21]: 33.7%; inhibition in vivo at 25 mg/kg [22]: 17.6%; IC50 at 24 h [23]: 8.7 µg/mL (≈ 24.1 µM); IC50 at 24 h [24]: 15.3 µg/mL (≈ 42.4 µM); IC50 at 24 h [25]: 18.1 µg/mL (≈ 50.1 µM); Ratio [26]: 1 - 2; Ratio [27]: 1; Ratio [28]: 2 |
| N=C(N)N/N=C/c1ccc(/C=C/C(=O)c2cccc(Br)c2)cc1 | 2 (≈ 5.39 µM) | 2 (≈ 5.39 µM) | 2 (≈ 5.39 µM) | 2 (≈ 5.39 µM) | 2 (≈ 5.39 µM) | 8 (≈ 21.5 µM) | 1 (≈ 2.69 µM) | 2 (≈ 5.39 µM) | 2 (≈ 5.39 µM) | 2 (≈ 5.39 µM) | 2 (≈ 5.39 µM) | 2 (≈ 5.39 µM) | 4 (≈ 10.8 µM) | 49.7 | – | – | – | – | – | – | Ratio [26]: 1 - 2; Ratio [27]: 1; Ratio [28]: 2 |
| COc1ccc2c(c1)c(CC(=O)O)c(C)n2C(=O)c1ccc(Cl)cc1 [INDOMETHACIN] | – | – | – | – | – | – | – | – | – | – | – | – | – | 89.4 | 12 | 30.9 to 33.3 | 18.6 | 15.6 | 10.3 | 5.01 | inhibition in vivo at 50 mg/kg [21]: 22.8%; inhibition in vivo at 25 mg/kg [22]: 4.85% |
